Design in all cases: scale not given: the % may be the effect or the level left
Test [1] addresses T1, Serine/threonine-protein kinase ULK2 (Homo sapiens) (UniProt Q8IYT8).
T1 sequence (whole entry): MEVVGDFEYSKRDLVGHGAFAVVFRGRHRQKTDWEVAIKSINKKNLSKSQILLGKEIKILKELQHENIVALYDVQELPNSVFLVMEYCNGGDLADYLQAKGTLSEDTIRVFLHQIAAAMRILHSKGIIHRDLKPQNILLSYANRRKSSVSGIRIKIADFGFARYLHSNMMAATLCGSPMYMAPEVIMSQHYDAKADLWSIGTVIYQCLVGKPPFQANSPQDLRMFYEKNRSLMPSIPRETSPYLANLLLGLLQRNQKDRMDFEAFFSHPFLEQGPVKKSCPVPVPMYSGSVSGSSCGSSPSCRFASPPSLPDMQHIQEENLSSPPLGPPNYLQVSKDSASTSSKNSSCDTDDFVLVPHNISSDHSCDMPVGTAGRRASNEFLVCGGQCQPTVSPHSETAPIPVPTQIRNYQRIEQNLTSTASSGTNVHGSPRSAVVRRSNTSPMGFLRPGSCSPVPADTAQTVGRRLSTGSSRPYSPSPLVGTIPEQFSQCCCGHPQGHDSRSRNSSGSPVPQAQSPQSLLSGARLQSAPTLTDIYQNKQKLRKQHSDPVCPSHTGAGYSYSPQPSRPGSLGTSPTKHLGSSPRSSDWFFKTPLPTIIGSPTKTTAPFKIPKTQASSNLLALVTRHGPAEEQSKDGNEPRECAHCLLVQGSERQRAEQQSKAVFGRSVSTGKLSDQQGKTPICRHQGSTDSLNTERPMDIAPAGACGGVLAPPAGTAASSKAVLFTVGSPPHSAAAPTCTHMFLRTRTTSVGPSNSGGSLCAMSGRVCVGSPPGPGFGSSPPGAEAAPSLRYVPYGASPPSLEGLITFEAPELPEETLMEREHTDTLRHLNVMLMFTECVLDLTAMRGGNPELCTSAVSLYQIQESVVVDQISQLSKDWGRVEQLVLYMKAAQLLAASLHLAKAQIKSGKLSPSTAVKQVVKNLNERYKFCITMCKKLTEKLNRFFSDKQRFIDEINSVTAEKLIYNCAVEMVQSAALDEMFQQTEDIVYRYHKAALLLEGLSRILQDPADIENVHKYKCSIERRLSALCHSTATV
Nature of the test: Inhibition of human ULK2 assessed as enzyme activity at 1 uM using myelin basic protein as substrate preincubated for 20 mins followed by [gamma-33P]-ATP addition and measured after 120 mins by radiometric Hot-SpotSM Kinase assay relative to control.

In test [2] the target is T2, Tyrosine-protein kinase receptor TYRO3 (Homo sapiens) (UniProt Q06418).
T2 sequence (whole entry): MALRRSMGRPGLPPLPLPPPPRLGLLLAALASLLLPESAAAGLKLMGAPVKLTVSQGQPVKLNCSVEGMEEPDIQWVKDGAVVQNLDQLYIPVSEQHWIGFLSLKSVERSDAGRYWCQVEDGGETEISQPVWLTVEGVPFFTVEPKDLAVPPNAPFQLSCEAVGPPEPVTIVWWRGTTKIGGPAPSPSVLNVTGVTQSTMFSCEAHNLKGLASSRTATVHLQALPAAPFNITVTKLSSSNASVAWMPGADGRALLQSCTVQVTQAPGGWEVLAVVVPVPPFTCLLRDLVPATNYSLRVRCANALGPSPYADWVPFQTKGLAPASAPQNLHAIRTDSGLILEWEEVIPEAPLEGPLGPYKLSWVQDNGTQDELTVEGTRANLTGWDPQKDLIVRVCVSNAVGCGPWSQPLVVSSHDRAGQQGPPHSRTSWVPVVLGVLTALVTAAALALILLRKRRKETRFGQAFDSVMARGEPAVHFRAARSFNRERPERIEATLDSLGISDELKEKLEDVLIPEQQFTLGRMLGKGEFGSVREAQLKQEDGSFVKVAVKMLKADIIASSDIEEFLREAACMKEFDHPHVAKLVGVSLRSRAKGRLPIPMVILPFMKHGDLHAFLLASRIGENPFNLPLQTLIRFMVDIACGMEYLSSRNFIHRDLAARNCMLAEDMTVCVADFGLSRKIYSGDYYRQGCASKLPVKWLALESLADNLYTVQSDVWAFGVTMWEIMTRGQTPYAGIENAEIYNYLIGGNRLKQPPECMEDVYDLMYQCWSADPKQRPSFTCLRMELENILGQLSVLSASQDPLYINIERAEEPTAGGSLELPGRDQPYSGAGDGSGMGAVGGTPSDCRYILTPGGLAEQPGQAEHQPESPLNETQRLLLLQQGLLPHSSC
Put plainly: Inhibition of human TYRO3 assessed as enzyme activity at 1 uM using poly[Glu:Tyr] (4:1) as substrate preincubated for 20 mins followed by [gamma-33P]-ATP addition and measured after 120 mins by radiometric Hot-SpotSM Kinase assay relative to control.

Test [3] concerns the target Mitogen-activated protein kinase 14 (Homo sapiens) (UniProt Q16539). Put plainly: Inhibition of human P38a assessed as enzyme activity at 1 uM using myelin basic protein as substrate preincubated for 20 mins followed by [gamma-33P]-ATP addition and measured after 120 mins by radiometric Hot-SpotSM Kinase assay relative to control.
The target in test [4] is Misshapen-like kinase 1 (Homo sapiens) (UniProt Q8N4C8). Nature of the test: Inhibition of human MINK1 assessed as enzyme activity at 1 uM using myelin basic protein as substrate preincubated for 20 mins followed by [gamma-33P]-ATP addition and measured after 120 mins by radiometric Hot-SpotSM Kinase assay relative to control.
In test [5] the target is Homeodomain-interacting protein kinase 2 (Homo sapiens) (UniProt Q9H2X6). Put plainly: Inhibition of human HIPK2 assessed as enzyme activity at 1 uM using myelin basic protein as substrate preincubated for 20 mins followed by [gamma-33P]-ATP addition and measured after 120 mins by radiometric Hot-SpotSM Kinase assay relative to control.
Test [6] has as its target Serine/threonine-protein kinase Chk2 (Homo sapiens) (UniProt O96017). Put plainly: Inhibition of human CHK2 assessed as enzyme activity at 1 uM using KKKVSRSGLYRSPSMPENLNRPR as substrate preincubated for 20 mins followed by [gamma-33P]-ATP addition and measured after 120 mins by radiometric Hot-SpotSM Kinase assay relative to control.
Test [7] addresses Dual specificity mitogen-activated protein kinase kinase 2 (Homo sapiens) (UniProt P36507). Put plainly: Inhibition of human MEK2 assessed as enzyme activity at 1 uM using ERK2 (K52R) as substrate preincubated for 20 mins followed by [gamma-33P]-ATP addition and measured after 120 mins by radiometric Hot-SpotSM Kinase assay relative to control.
In test [8] the target is Death-associated protein kinase 3 (Homo sapiens) (UniProt O43293). Nature of the test: Inhibition of human ZIPK assessed as enzyme activity at 1 uM using KKLNRTLSFAEPG as substrate preincubated for 20 mins followed by [gamma-33P]-ATP addition and measured after 120 mins by radiometric Hot-SpotSM Kinase assay relative to control.

The record followed here is ChEMBL document CHEMBL5715954, “Silencing c-Myc translation as a therapeutic strategy through targeting PI3Kδ and CK1ε in hematological malignancies” (Blood, 2017).

Chain of Dual specificity mitogen-activated protein kinase kinase 2 (Homo sapiens) (P36507 whole entry): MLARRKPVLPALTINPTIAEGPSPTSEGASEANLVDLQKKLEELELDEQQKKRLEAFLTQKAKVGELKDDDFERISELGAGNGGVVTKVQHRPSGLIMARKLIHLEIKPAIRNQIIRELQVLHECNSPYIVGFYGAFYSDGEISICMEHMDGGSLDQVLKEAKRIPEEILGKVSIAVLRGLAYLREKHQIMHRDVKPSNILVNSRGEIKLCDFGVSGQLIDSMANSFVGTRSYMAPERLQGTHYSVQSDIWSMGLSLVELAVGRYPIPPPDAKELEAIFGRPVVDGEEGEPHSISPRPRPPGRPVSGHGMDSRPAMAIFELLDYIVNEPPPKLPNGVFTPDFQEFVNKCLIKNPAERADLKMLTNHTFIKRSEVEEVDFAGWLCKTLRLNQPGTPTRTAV
Chain of Misshapen-like kinase 1 (Homo sapiens) (Q8N4C8 whole entry, looked up): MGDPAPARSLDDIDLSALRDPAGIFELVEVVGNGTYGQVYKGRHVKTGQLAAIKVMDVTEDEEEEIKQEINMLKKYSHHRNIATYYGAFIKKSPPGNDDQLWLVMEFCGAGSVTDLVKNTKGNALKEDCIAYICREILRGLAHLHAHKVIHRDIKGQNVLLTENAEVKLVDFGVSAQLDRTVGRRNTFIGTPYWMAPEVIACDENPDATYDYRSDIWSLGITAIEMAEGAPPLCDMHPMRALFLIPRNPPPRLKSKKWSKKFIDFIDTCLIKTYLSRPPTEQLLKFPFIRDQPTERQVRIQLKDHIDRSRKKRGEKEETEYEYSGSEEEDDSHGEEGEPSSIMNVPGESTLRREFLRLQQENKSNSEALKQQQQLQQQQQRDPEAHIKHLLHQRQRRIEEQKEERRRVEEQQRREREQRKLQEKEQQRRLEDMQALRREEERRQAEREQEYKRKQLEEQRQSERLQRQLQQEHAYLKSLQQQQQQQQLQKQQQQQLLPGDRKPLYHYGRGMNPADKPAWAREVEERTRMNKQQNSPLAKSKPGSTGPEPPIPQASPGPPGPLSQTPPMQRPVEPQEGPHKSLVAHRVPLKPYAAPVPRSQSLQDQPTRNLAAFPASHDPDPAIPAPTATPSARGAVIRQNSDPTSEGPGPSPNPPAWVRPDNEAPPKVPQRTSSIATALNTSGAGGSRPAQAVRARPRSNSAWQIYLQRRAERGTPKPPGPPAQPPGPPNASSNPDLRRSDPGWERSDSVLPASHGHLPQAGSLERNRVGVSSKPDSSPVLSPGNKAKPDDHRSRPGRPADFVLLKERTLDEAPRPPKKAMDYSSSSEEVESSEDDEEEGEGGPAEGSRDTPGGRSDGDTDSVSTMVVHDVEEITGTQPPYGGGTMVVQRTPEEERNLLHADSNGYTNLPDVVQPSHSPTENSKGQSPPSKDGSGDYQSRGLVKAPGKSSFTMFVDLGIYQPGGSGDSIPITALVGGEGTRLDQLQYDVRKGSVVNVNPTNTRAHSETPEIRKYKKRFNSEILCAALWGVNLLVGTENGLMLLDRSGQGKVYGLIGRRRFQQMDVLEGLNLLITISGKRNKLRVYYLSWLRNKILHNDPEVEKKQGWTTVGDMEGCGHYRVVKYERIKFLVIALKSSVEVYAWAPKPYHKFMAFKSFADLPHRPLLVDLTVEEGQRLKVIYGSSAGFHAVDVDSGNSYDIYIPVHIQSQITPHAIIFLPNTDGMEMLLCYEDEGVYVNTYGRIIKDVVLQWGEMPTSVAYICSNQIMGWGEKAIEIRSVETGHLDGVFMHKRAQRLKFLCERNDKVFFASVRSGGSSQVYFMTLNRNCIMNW
Chain of Homeodomain-interacting protein kinase 2 (Homo sapiens) (Q9H2X6 whole entry, looked up): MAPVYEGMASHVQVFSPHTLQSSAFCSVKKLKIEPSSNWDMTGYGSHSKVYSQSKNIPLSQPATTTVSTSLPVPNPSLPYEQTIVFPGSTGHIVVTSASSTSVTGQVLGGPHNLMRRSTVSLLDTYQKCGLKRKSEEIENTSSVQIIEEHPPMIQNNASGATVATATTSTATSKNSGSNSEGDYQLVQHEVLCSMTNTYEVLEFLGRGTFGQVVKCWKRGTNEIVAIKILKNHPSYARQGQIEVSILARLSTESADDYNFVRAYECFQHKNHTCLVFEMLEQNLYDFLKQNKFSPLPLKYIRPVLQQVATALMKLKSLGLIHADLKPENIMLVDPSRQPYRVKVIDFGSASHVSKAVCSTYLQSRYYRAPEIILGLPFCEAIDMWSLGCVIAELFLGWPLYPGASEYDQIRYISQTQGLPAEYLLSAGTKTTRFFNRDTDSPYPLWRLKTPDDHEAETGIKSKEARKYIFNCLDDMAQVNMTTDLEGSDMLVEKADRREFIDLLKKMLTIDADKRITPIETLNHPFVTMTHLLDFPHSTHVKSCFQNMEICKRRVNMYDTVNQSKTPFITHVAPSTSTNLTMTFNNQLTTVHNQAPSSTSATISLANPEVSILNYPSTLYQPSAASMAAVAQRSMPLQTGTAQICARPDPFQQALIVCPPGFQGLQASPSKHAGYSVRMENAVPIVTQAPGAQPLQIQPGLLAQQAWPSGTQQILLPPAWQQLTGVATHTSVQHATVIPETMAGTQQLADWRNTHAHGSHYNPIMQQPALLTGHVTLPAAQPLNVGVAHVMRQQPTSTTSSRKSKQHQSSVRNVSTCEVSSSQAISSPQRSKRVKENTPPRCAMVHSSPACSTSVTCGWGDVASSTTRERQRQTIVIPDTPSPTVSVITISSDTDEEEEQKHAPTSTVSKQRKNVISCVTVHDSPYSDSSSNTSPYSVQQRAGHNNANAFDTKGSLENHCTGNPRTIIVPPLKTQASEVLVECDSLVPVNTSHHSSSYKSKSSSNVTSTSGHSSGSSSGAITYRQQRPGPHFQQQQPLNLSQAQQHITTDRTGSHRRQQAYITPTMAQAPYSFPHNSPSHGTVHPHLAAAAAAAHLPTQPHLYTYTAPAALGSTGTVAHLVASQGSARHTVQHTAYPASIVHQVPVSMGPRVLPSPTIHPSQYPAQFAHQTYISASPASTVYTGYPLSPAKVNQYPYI
Chain of Mitogen-activated protein kinase 14 (Homo sapiens) (Q16539 whole entry): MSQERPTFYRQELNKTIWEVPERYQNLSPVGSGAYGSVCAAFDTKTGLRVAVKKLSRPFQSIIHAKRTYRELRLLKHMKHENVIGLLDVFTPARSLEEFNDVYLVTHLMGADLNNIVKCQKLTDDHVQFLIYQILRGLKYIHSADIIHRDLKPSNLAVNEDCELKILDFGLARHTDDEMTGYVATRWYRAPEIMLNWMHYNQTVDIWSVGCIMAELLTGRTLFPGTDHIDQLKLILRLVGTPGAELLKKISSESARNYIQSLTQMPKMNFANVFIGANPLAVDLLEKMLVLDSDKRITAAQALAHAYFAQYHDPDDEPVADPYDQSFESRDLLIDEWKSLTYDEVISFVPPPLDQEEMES
Chain of Serine/threonine-protein kinase Chk2 (Homo sapiens) (O96017 whole entry): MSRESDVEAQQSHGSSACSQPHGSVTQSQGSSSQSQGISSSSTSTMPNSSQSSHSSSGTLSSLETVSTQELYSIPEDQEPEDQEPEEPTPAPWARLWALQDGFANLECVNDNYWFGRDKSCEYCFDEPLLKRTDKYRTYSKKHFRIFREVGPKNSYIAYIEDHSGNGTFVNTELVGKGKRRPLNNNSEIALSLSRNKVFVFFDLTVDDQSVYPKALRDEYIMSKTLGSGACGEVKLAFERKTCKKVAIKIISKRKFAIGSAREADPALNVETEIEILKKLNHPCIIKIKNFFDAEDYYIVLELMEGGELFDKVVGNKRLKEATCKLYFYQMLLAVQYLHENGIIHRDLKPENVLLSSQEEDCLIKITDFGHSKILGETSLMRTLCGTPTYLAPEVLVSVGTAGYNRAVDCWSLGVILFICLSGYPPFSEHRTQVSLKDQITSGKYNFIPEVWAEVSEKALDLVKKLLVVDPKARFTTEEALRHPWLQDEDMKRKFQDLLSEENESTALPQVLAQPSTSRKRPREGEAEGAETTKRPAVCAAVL
Chain of Death-associated protein kinase 3 (Homo sapiens) (O43293 whole entry, looked up): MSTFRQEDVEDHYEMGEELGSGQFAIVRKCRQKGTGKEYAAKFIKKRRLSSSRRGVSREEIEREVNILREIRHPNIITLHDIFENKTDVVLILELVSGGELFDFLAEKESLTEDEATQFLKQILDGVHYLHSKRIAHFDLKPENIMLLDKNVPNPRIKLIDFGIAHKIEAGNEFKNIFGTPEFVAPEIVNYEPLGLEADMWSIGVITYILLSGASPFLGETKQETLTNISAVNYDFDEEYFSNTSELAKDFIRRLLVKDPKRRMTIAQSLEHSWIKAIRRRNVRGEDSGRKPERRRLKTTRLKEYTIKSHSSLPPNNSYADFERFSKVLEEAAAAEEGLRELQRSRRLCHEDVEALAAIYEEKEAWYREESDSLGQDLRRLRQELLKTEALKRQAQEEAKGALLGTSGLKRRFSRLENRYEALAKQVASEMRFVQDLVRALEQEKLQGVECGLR

As to `C[C@H](Nc1ncnc2nc[nH]c12)c1cc2cccc(Cl)c2c(=O)n1-c1ccccc1`, the Activity in test [1] came to 98.4%; in test [2], 98.5%; in test [3], 94.5%; in test [4], 97%; in test [5] it was 100%; in test [6], 91.3%. For the same molecule, the figures for the Activity in test [7] and in test [8] were 90% and 107%, respectively.

Turning to `CC[C@H](Nc1ncnc2[nH]cnc12)c1nc2cccc(F)c2c(=O)n1-c1ccccc1`, the Activity came out at 89.3% in test [1]; 98.9% in test [2]; 98.8% in test [3]; 95.2% in test [4]; 100% in test [5]; 93.7% in test [6]. For the same molecule, the Activity in test [7] amounted to 91.5%; in test [8] it was 99.3%.

`CC(C)Oc1ccc(-c2nn([C@@H](C)c3oc4ccc(F)cc4c(=O)c3-c3cccc(F)c3)c3ncnc(N)c23)cc1F` [UMBRALISIB]: the Activity in test [1] worked out at 101%; in test [2], 96.8%; in test [3], 96.9%; in test [4] it was 96.4%; in test [5], 107%; in test [6] it was 93.2%. In addition, the values for the Activity in test [7] and in test [8] were 90.4% and 103%, respectively.
